Experiment [1] addresses T1, hRIPK1 (aa 1-375) fusion protein (Homo sapiens, UniProt Q13546).
T1 construct: hRIPK1 (aa 1-375) fusion protein
T1 sequence (Q13546 1-375): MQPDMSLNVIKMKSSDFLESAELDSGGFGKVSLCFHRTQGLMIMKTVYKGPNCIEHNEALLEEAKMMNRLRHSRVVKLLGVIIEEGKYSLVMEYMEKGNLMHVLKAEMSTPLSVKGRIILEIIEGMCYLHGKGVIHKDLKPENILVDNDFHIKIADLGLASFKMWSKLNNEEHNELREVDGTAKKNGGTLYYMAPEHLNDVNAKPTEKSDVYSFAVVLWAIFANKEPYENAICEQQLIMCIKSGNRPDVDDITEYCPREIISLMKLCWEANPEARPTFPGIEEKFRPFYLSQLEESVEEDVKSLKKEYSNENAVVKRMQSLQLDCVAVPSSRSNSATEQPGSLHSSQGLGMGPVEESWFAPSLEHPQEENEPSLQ
In words: ADP-Glo kinase assay: catalytic activity of RIPK1 (autophosphorylation, conversion of ATP to ADP). Type of experiment: biochemical. The essentials: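 hRIPK1 (aa 1-375) fusion protein (3.6 μg/ml final) was preincubated 30 min at rt with compound (33300-1.69 nM, 1% DMSO), then 50 μM ATP was added for 240 min at rt. ADP from autophosphorylation was measured by ADP-Glo luminescence and curves fitted by nonlinear regression.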
For orientation: ADP-Glo first removes unused ATP, then detects ADP through luciferase.

In a further experiment the test system is U937 cells. Nature of the experiment: Cellular assay in U937 cells: activity of RIPK1 inhibitors on TNFα/zVAD.fmk-induced cell death (necroptosis), CellTiter 96 AQueous (MTS) readout. The experiment is classed as cell-based. Particulars: Homo sapiens, U-937. A digest of the protocol:
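Necroptosis was measured by viable-cell MTS reduction (4 h, absorbance 490 nm) after overnight (18–24 h) 37° C culture. Cell suspensions of U937 cells carried TNFα (100 ng/ml) plus zVAD.fmk (50 μM) before compound was added. A 10-point curve (10 μM–0.26 nM or 1 μM–0.07 nM) was run in duplicate, normalised to the control lacking TNFα/zVAD.fmk.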

Here are results for 23 molecules from patent publication US20260158009A1 (GENZYME CORPORATION, priority 2023, published 2026).

One may read the IC50 as the concentration at which inhibition is half-maximal. Turning to `CNC(=O)c1ccc(F)c(C[C@H]2CC[C@H](C(=O)N3OCC[C@H]3c3cncc(F)c3)CC2)c1` [compound 172, trans-4-fluoro-3-[[4-[(3S)-3-(5-fluoro-3-pyridyl)isoxazolidine-2-carbonyl]cyclohexyl]methyl]-N-methyl-benzamide], the half-maximal inhibitory concentration (IC50) was found to be 16 nM in experiment [1] and 9 nM in the experiment on U937 cells.
On to `COc1cc(C[C@H]2CC[C@H](C(=O)N3OCC[C@H]3c3ccc(C)nc3)CC2)cn2nc(C)nc12` [compound 368, trans-[4-(8-Methoxy-2-methyl-[1,2,4]triazolo[1,5-a]pyridin-6-ylmethyl)-cyclohexyl]-[(S)-3-(6-methyl-pyridin-3-yl)-isoxazolidin-2-yl]-methanone], for which the half-inhibitory concentration (IC50) was found to be 95 nM in experiment [1] and 123 nM in the experiment on U937 cells.
As for `Cc1ncc(C[C@H]2CC[C@H](C(=O)N3OCC[C@H]3c3cnc(C)c(F)c3)CC2)cn1` [compound 343, trans-[(3S)-3-(5-fluoro-6-methylpyridin-3-yl)-1,2-oxazolidin-2-yl]-[4-[(2-methylpyrimidin-5-yl)methyl]cyclohexyl]methanone], the values for the IC50 (in experiment [1]; in the experiment on U937 cells) were 43 nM and 21 nM, respectively.
The like results for `NC(=O)c1cc2ncn(C[C@H]3CC[C@H](C(=O)N4OCC[C@H]4c4cc(F)cc(F)c4)CC3)c2cc1F` [compound 75, trans-1-((4-((S)-3-(3,5-difluorophenyl)isoxazolidine-2-carbonyl)cyclohexyl)methyl)-6-fluoro-1H-benzo[d]imidazole-5-carboxamide] were, in that order, 27 nM and 36 nM.
`N#Cc1cc(F)cc([C@@H]2CCON2C(=O)[C@H]2CC[C@H](Cn3cnc4ccccc43)CC2)c1` [compound 7, trans-3-((S)-2-(4-((1H-benzo[d]imidazol-1-yl)methyl)cyclohexane-1-carbonyl)isoxazolidin-3-yl)-5-fluorobenzonitrile]: the IC50 in experiment [1] is 15 nM; in the experiment with U937 cells it was 9 nM.
Consider `Cn1ncc2ncc(C[C@H]3CC[C@H](C(=O)N4OCC[C@H]4c4cc(F)cc(C#N)c4)CC3)cc21` [compound 296, trans-3-fluoro-5-[(3S)-2-[4-[(1-methylpyrazolo[4,3-b]pyridin-6-yl)methyl]cyclohexanecarbonyl]isoxazolidin-3-yl]benzonitrile], for which the IC50 in experiment [1] was found to be 5 nM; in the experiment on U937 cells it was 2 nM.
Consider `Cc1nc2c(C)cc(C[C@H]3CC[C@H](C(=O)N4OCC[C@H]4c4cnc(C)c(F)c4)CC3)cn2n1` [compound 330, trans-[4-[(2,8-dimethyl-[1,2,4]triazolo[1,5-a]pyridin-6-yl)methyl]cyclohexyl]-[(3S)-3-(5-fluoro-6-methylpyridin-3-yl)-1,2-oxazolidin-2-yl]methanone], for which the IC50 is 20 nM in experiment [1] and 18 nM in the experiment with U937 cells.
As for `Cc1cn2ncc(C[C@H]3CC[C@H](C(=O)N4OCC[C@H]4c4cnccn4)CC3)cc2n1` [compound 349, trams-[4-[(2-methylimidazo[1,2-b]pyridazin-7-yl)methyl]cyclohexyl]-[(3S)-3-pyrazin-2-yl-1,2-oxazolidin-2-yl]methanone], the results for the half-inhibitory concentration (IC50) (in experiment [1]; in the experiment on U937 cells) were 42 nM and 108 nM, respectively.
As to `N#Cc1cc(C[C@H]2CC[C@H](C(=O)N3OCC[C@H]3c3ccc(F)cc3)CC2)ccc1F` [compound 242, trans-2-fluoro-5-[[4-[(3S)-3-(4-fluorophenyl)isoxazolidine-2-carbonyl]cyclohexyl]methyl]benzonitrile], the 50% inhibitory concentration (IC50) in experiment [1] is 21 nM; in the experiment on U937 cells it was 16 nM.
The like results for `N#Cc1cc(F)cc([C@@H]2CCON2C(=O)[C@H]2CC[C@H](Cn3cnc4cc(C#N)ccc43)CC2)c1` [compound 5, trans-1-((4-((S)-3-(3-cyano-5-fluorophenyl)isoxazolidine-2-carbonyl)cyclohexyl)methyl)-1H-benzo[d]imidazole-5-carbonitrile] were, in that order, 45 nM and 244 nM.
Take `Cc1nc2ccc(C[C@H]3CC[C@H](C(=O)N4OCC[C@H]4c4cc(F)cc(F)c4)CC3)nn2n1` [compound 315, [(3S)-3-(3,5-difluorophenyl)-1,2-oxazolidin-2-yl]-[4-[(2-methyl-[1,2,4]triazolo[1,5-b]pyridazin-6-yl)methyl]cyclohexyl]methanone]: the IC50 came to 10 nM in experiment [1] and 20 nM with U937 cells.
On to `Cc1ncn(C[C@H]2CC[C@H](C(=O)N3OCC[C@H]3c3cc(F)cc(C#N)c3)CC2)c1C` [compound 82, trans-3-((S)-2-(4-((4,5-dimethyl-1H-imidazol-1-yl)methyl)cyclohexane-1-carbonyl)isoxazolidin-3-yl)-5-fluorobenzonitrile], for which the IC50 in experiment [1] is 67 nM; with U937 cells, 136 nM.
For `CNC(=O)c1cc(F)cc(C[C@H]2CC[C@H](C(=O)N3OCC[C@H]3c3ccc(F)cc3)CC2)c1` [compound 165, trans-3-fluoro-5-[[4-[(3S)-3-(4-fluorophenyl)isoxazolidine-2-carbonyl]cyclohexyl]methyl]-N-methyl-benzamide] the same measures were 5 nM and 7 nM.
Consider `N#Cc1cc(F)cc([C@@H]2CCON2C(=O)[C@H]2CC[C@H](Cn3ccc4ccncc43)CC2)c1` [compound 16, trans-3-((S)-2-(4-((1H-pyrrolo[2,3-c]pyridin-1-yl)methyl)cyclohexane-1-carbonyl)isoxazolidin-3-yl)-5-fluorobenzonitrile], for which the figures for the 50% inhibitory concentration (IC50) (in experiment [1]; in the experiment with U937 cells) were 39 nM and 6 nM, respectively.
On to `Cc1cn2cc(C[C@H]3CC[C@H](C(=O)N4OCC[C@H]4c4cnccn4)CC3)cc(F)c2n1` [compound 350, trans-[4-(8-Fluoro-2-methyl-imidazo[1,2-a]pyridin-6-ylmethyl)-cyclohexyl]-((S)-3-pyrazin-2-yl-isoxazolidin-2-yl)-methanone], for which the IC50 in experiment [1] was 63 nM; in the experiment with U937 cells it was 34 nM.
As to `Cc1nc([C@@H]2CCON2C(=O)[C@H]2CC[C@H](Cc3cc(F)c4nnc(C)n4c3)CC2)cs1` [compound 363, trans-[4-(8-Fluoro-3-methyl-[1,2,4]triazolo[4,3-a]pyridin-6-ylmethyl)-cyclohexyl]-[(S)-3-(2-methyl-thiazol-4-yl)-isoxazolidin-2-yl]-methanone], the values for the IC50 (in experiment [1]; in the experiment on U937 cells) were 180 nM and 222 nM, respectively.
With `COc1cncc([C@@H]2CCON2C(=O)[C@H]2CC[C@H](Cn3ncc4ncc(C#N)cc43)CC2)n1` [compound 186, trans-1-[[4-[(3S)-3-(6-methoxypyrazin-2-yl)isoxazolidine-2-carbonyl]cyclohexyl]methyl]pyrazolo[4,3-b]pyridine-6-carbonitrile], the figures for the IC50 (in experiment [1]; with U937 cells) were 23 nM and 39 nM, respectively.
Regarding `N#Cc1cc(F)cc([C@@H]2CCON2C(=O)[C@H]2CC[C@H](Cc3cncnc3)CC2)c1` [compound 247, trans-3-fluoro-5-[(3S)-2-[4-(pyrimidin-5-ylmethyl)cyclohexanecarbonyl]isoxazolidin-3-yl]benzonitrile], the IC50 worked out at 22 nM in experiment [1] and 136 nM in the experiment with U937 cells.
With `N#Cc1cc(F)cc([C@@H]2CCON2C(=O)[C@H]2CC[C@H](Cn3cc4cc(F)ccc4n3)CC2)c1` [compound 56, trans-3-fluoro-5-((S)-2-(4-((5-fluoro-2H-indazol-2-yl)methyl)cyclohexane-1-carbonyl)isoxazolidin-3-yl)benzonitrile], the concentration for half-maximal inhibition (IC50) is 42 nM in experiment [1] and 109 nM in the experiment with U937 cells.
`N#Cc1cnc2ccn(C[C@H]3CC[C@H](C(=O)N4OCC[C@H]4c4cnccn4)CC3)c2c1` [compound 134, trans-1-[[4-[(3S)-3-pyrazin-2-ylisoxazolidine-2-carbonyl]cyclohexyl]methyl]pyrrolo[3,2-b]pyridine-6-carbonitrile]: the half-maximal inhibitory concentration (IC50) in experiment [1] amounted to 27 nM; in the experiment on U937 cells, 25 nM.
Regarding `Cc1nc([C@@H]2CCON2C(=O)[C@H]2CC[C@H](Cn3cc4ccc(C(N)=O)cc4n3)CC2)cs1` [Compound 233, trans-2-[[4-[(3S)-3-(2-methylthiazol-4-yl)isoxazolidine-2-carbonyl]cyclohexyl]methyl]indazole-6-carboxamide], the IC50 in experiment [1] is 114 nM; with U937 cells it was 384 nM.
For the molecule `Cc1ccc([C@@H]2CCON2C(=O)[C@H]2CC[C@H](Cc3cnn4cc(C)nc4c3)CC2)cn1` [compound 353, trans-[4-[(2-methylimidazo[1,2-b]pyridazin-7-yl)methyl]cyclohexyl]-[(3S)-3-(6-methylpyridin-3-yl)-1,2-oxazolidin-2-yl]methanone], the IC50 amounted to 87 nM in experiment [1] and 112 nM in the experiment on U937 cells.
For the molecule `Cc1cnc([C@@H]2CCON2C(=O)[C@H]2CC[C@H](Cc3cc(C)c4nc(C)nn4c3)CC2)cn1` [compound 328, trans-[4-[(2,8-dimethyl-[1,2,4]triazolo[1,5-a]pyridin-6-yl)methyl]cyclohexyl]-[(3S)-3-(5-methylpyrazin-2-yl)isoxazolidin-2-yl]methanone; 2,2,2-trifluoroacetic], the figures for the half-maximal inhibitory concentration (IC50) (in experiment [1]; in the experiment with U937 cells) were 47 nM and 82 nM, respectively.
